The values below are quoted from earlier work in publication PMC5368910 (BMC Pharmacology & Toxicology, 2017).

Series [1] has as its system Clostridium difficile-associated diarrhea (CDAD). Conditions: stated for vancomycin and metronidazole treatments together; cited from earlier work. The text has this:
Despite having a clinical response rate of ~73 to 85%, vancomycin and metronidazole treatments are associated with recurrent CDAD in up to 45% of patients. Aggressive vancomycin and metronidazole treatment is also associated with disruption of the intestinal microbiota and can promote colonization by vancomycin-resistant enterococci, highlighting the need for novel treatment options. An ideal agent for the treatment of CDAD should be associated with low levels of systemic absorption, resulting in high concentrations of the drug in the colon, combined with a narrow spect ...

Series [2] concerns C. difficile. Details: method as in PMID 22183166, PMID 22391542. Conditions: in vitro, C. difficile isolates; cited from earlier work.

On to `Cc1ncc([N+](=O)[O-])n1CCO` [metronidazole], for which, in series [1], the “recurrent CDAD, share of patients” value was “up to 45%”. Consider `CN[C@H](CC(C)C)C(=O)N[C@H]1C(=O)N[C@@H](CC(N)=O)C(=O)N[C@H]2C(=O)N[C@H]3C(=O)N[C@H](C(=O)N[C@H](C(=O)O)c4cc(O)cc(O)c4-c4cc3ccc4O)[C@H](O)c3ccc(c(Cl)c3)Oc3cc2cc(c3O[C@@H]2O[C@H](CO)[C@@H](O)[C@H](O)[C@H]2O[C@H]2C[C@](C)(N)[C@H](O)[C@H](C)O2)Oc2ccc(cc2Cl)[C@H]1O` [vancomycin, reference compound], for which, in series [2], the “minimum inhibitory concentration at which 90% of the isolates were inhibited [MIC90]” value is 2.0 mg/L. In addition, the “recurrent CDAD, share of patients” value in series [1] is on record as “up to 45%”.
